Laboratory results: patent US9598434B2, “Benzazepine compound” (Astellas Pharma Inc., priority 2010, dated 2017)

Row | Compound | melting point
1 | O=C(O)CCC(=O)O.O=C(OCCc1ccccc1F)N1CCOc2cc3c(cc21)CCNCC3 | 186 to 187 °C
2 | c1c2c(c(C3CC3)c3c1OCCN3CC1CCOCC1)CCNCC2 [Example 250] | 153 to 155 °C
3 | CC1(C)CC(=O)Nc2cc3c(cc21)CCNCC3.Cl | 270 to 272 °C
4 | CCOCCN1CCOc2cc3c(c(C)c21)CCNCC3.O=C(O)/C=C/C(=O)O | 152 to 155 °C
5 | COc1ccc(F)cc1CN1CCOc2cc3c(c(C4CC4)c21)CCNCC3.O=C(O)/C=C/C(=O)O | 189 to 192 °C
6 | CC1(C)CCc2cc3c(cc2N1)CCNCC3 | 270 to 273 °C
7 | CN1CCOc2cc3c(c(-c4cccs4)c21)CCNCC3.O=C(O)/C=C/C(=O)O | 248 to 252 °C
8 | CCOCCN1CCOc2cc3c(c(CC)c21)CCNCC3.O=C(O)/C=C/C(=O)O | 179 to 181 °C
9 | COCCN1c2cc3c(cc2CCC1(C)C)CCNCC3.O=C(O)/C=C/C(=O)O | 156 to 158 °C
10 | O=C(O)CCC(=O)O.c1ccc(CN2CCOc3cc4c(c(C5CC5)c32)CCNCC4)cc1 | 107 to 110 °C
11 | COCC(CN1CCOc2cc3c(c(C4CC4)c21)CCNCC3)Oc1ccc(F)cc1F.O=C(O)/C=C/C(=O)O (centres unmarked) | 150 to 151 °C
12 | O=C(O)CCC(=O)O.O=C(OCCc1ccc(F)cc1)N1CCOc2cc3c(cc21)CCNCC3 | 179 to 181 °C
13 | O=C(O)CCC(=O)O.O=C(OCCc1ccccc1)N1CCOc2cc3c(cc21)CCNCC3 | 185 to 187 °C
14 | COc1ccc(CN2C(=O)COc3cc4c(cc32)CCNCC4)cc1.O=C(O)CCC(=O)O | 173 to 176 °C
15 | CCCC1CN(C)c2cc3c(cc2O1)CCNCC3.O=C(O)/C=C/C(=O)O (centres unmarked) | 152 to 153 °C
16 | Cc1c2c(cc3c1N(C[C@H](C)F)CCO3)CCNCC2.O=C(O)/C=C/C(=O)O | 165 to 168 °C
17 | C[C@H](F)CN1CCOc2cc3c(c(C4CC4)c21)CCNCC3.O=C(O)/C=C/C(=O)O | 171 to 173 °C
18 | COc1cccc(CCOC(=O)N2CCOc3cc4c(cc32)CCNCC4)c1.O=C(O)CCC(=O)O | 134 to 136 °C
19 | COCCN1CCOc2c1cc1c(c2Br)CCNCC1 [Example 176] | 107 to 110 °C
20 | COCCN1C(=O)C(C)(C)Oc2cc3c(cc21)CCNCC3.O=C(O)/C=C/C(=O)O | 175 to 176 °C
21 | COCCN1CC(C)Oc2cc3c(c(C4CC4)c21)CCNCC3.O=C(O)/C=C/C(=O)O (centres unmarked) | 102 to 103 °C
22 | COc1cc(OCCN2CCOc3cc4c(c(C5CC5)c32)CCNCC4)c(F)cc1C#N.O=C(O)/C=C/C(=O)O | 125 to 128 °C

Row | Compound | melting point
23 | O=C(O)CCC(=O)O.O=C(OCCc1cccc(Cl)c1)N1CCOc2cc3c(cc21)CCNCC3 | 160 to 162 °C
24 | Fc1cccc(CN2CCOc3cc4c(c(C5CC5)c32)CCNCC4)c1.O=C(O)CCC(=O)O | 102 to 105 °C
25 | O=C(O)CCC(=O)O.O=C(OCCc1cccc(F)c1)N1CCOc2cc3c(cc21)CCNCC3 | 162 to 164 °C
26 | CC1(C)CCNc2cc3c(cc21)CCNCC3 [Example 159] | 288 to 290 °C
27 | COCC(CN1CCOc2cc3c(c(C4CC4)c21)CCNCC3)Oc1ccc(F)cc1.O=C(O)/C=C/C(=O)O (centres unmarked) | 138 to 140 °C
28 | Fc1c(Cl)cccc1CN1CCOc2cc3c(c(C4CC4)c21)CCNCC3.O=C(O)/C=C/C(=O)O | 181 to 184 °C
29 | COCC(F)(F)CN1CCOc2cc3c(c(C4CC4)c21)CCNCC3.O=C(O)/C=C/C(=O)O | 163 to 165 °C
30 | CN1CCC(C)(C)c2cc3c(cc21)CCNCC3.O=C(O)/C=C/C(=O)O | 197 to 200 °C
31 | COC(C)(C)CN1CCOc2cc3c(c(C4CC4)c21)CCNCC3 [Example 230] | 155 to 156 °C
32 | O=C(O)CCC(=O)O.c1ccc(OCCN2CCOc3cc4c(cc32)CCNCC4)cc1 | 132 to 134 °C
33 | COCCN1CCC(C)(C)c2cc3c(cc21)CCNCC3.O=C(O)/C=C/C(=O)O | 172 to 175 °C
34 | Cl.FC(F)(F)CN1CCOc2cc3c(c(Br)c21)CCNCC3 | 214 to 215 °C
35 | O=C(O)/C=C/C(=O)O.O=C(OCCc1ccccc1)N1CCOc2c1cc1c(c2-c2cccs2)CCNCC1 | 215 to 216 °C
36 | CC(C)CN1C(=O)CCc2cc3c(cc21)CCNCC3.O=C(O)CCC(=O)O | 142 to 144 °C
37 | COCCCN1C(=O)CCc2cc3c(c(Br)c21)CCNCC3.O=C(O)/C=C/C(=O)O | 153 to 155 °C
38 | CCCc1c2c(cc3c1OCCN3C(=O)OCCc1ccccc1)CCNCC2.O=C(O)/C=C/C(=O)O | 134 to 136 °C
39 | Clc1ccccc1CN1CCOc2cc3c(c(C4CC4)c21)CCNCC3.O=C(O)CCC(=O)O | 106 to 109 °C
40 | COCC(C)(C)CN1CCOc2cc3c(c(C4CC4)c21)CCNCC3 [Example 231] | 141 to 145 °C
41 | CCc1c2c(cc3c1N(C)CCO3)CCNCC2 [Example 226] | 184 to 185 °C
42 | Cl.FC(F)(F)CN1CCOc2c1cc1c(c2Br)CCNCC1 | 216 to 221 °C
43 | CC(C)COC(=O)N1CCCc2cc3c(cc21)CCNCC3.Cl | 202 to 207 °C
44 | COCCN1CCOc2cc3c(c(-c4ccccc4F)c21)CCNCC3.O=C(O)/C=C/C(=O)O | 179 to 182 °C

Row | Compound | melting point
45 | O=C(O)CCC(=O)O.O=C(OCCc1ccccc1)N1CCOc2c1cc1c(c2-c2ccccc2)CCNCC1 | 169 to 171 °C
46 | COCC(CN1CCOc2cc3c(c(C4CC4)c21)CCNCC3)Oc1ccccc1F.O=C(O)/C=C/C(=O)O (centres unmarked) | 132 to 133 °C
47 | CCCc1c2c(cc3c1N(C)CCO3)CCNCC2 [Example 225] | 151 to 152 °C
48 | COc1cccc(CN2C(=O)COc3cc4c(cc32)CCNCC4)c1.O=C(O)CCC(=O)O | 188 to 189 °C
49 | FC(F)(F)c1cccc(CN2CCOc3cc4c(cc32)CCNCC4)c1.O=C(O)/C=C/C(=O)O | 141 to 146 °C
50 | O=C(O)/C=C/C(=O)O.OCCN1CCOc2cc3c(c(C4CC4)c21)CCNCC3 | 146 to 150 °C
51 | CCCN1C(=O)CCc2cc3c(c(-c4ccccc4)c21)CCNCC3.O=C(O)CCC(=O)O | 196 to 200 °C
52 | CO[C@@H](C)CN1CCOc2cc3c(c(C4CC4)c21)CCNCC3.O=C(O)/C=C/C(=O)O | 135 to 138 °C
53 | COc1ccccc1CCOC(=O)N1CCOc2cc3c(cc21)CCNCC3.O=C(O)CCC(=O)O | 158 to 160 °C
54 | COCCN1C(=O)CCc2cc3c(c(Br)c21)CCNCC3.O=C(O)/C=C/C(=O)O | 99 to 104 °C
55 | FC(F)CN1CCOc2cc3c(c(C4CC4)c21)CCNCC3.O=C(O)/C=C/C(=O)O | 198 to 201 °C
56 | Clc1cccc(-c2c3c(cc4c2NCCC4)CCNCC3)c1.O=C(O)/C=C/C(=O)O | 159 to 162 °C
57 | O=C(O)/C=C/C(=O)O.c1c2c(c(C3CC3)c3c1OCCN3CC1CCOC1)CCNCC2 (centres unmarked) | 117 to 118 °C
58 | O=C(O)/C=C/C(=O)O.c1nc(CN2CCOc3cc4c(cc32)CCNCC4)cs1 | 134 to 138 °C
59 | COCCN1c2cc3c(cc2OC[C@H]1C)CCNCC3.O=C(O)/C=C/C(=O)O | 133 to 136 °C
60 | COCC(F)(F)CN1CCOc2cc3c(cc21)CCNCC3.Cl | 172 to 173 °C
61 | Cl.O=C1CCc2cc3c(cc2N1Cc1ccccc1)CCNCC3 | 177 to 180 °C
62 | COCCN1c2cc3c(cc2OC[C@@H]1C)CCNCC3.O=C(O)/C=C/C(=O)O | 131 to 134 °C
63 | O=C1CCc2cc3c(c(Cl)c2N1)CCNCC3 [Example 1, 11-chloro-1,3,4,6,7,8,9,10-octahydro-2H-azepino[4,5-g]quinolin-2-one] | 165 to 167 °C
64 | CCCN1C(=O)CCc2cc3c(c(C4CC4)c21)CCNCC3.O=C(O)CCC(=O)O | 170 to 171 °C
65 | O=C(O)CCC(=O)O.O=C(OCCc1ccccc1)N1CCOc2c1cc1c(c2Br)CCNCC1 | 142 to 143 °C
66 | CCc1c2c(cc3c1N(CCCF)CCO3)CCNCC2 [Example 264] | 153 to 154 °C

Row | Compound | melting point
67 | FC1(F)Oc2ccc(CN3CCOc4cc5c(c(C6CC6)c43)CCNCC5)cc2O1.O=C(O)/C=C/C(=O)O | 161 to 164 °C
68 | CCNC(=O)N1CCCc2cc3c(cc21)CCNCC3.O=C(O)/C=C/C(=O)O | 174 to 176 °C
69 | COCCCN1CCOc2cc3c(c(C)c21)CCNCC3.O=C(O)/C=C/C(=O)O | 160 to 163 °C
70 | O=C(O)CCC(=O)O.O=C1COc2cc3c(cc2N1Cc1cccc(Cl)c1)CCNCC3 | 192 to 194 °C
71 | COCCN1CCOc2cc3c(c(-c4ccccc4)c21)CCNCC3.O=C(O)/C=C/C(=O)O | 199 to 201 °C
72 | O=C(O)CCC(=O)O.O=C1COc2cc3c(cc2N1Cc1ccccc1Cl)CCNCC3 | 119 to 127 °C
73 | O=C(O)/C=C/C(=O)O.c1cc(CN2CCOc3cc4c(c(C5CC5)c32)CCNCC4)c2c(c1)OCCO2 | 184 to 187 °C
74 | Fc1cccc(CN2CCOc3cc4c(c(C5CC5)c32)CCNCC4)c1F.O=C(O)/C=C/C(=O)O | 157 to 159 °C
75 | CC(COC(=O)N1CCOc2cc3c(cc21)CCNCC3)c1ccccc1.O=C(O)CCC(=O)O (centres unmarked) | 177 to 179 °C
76 | O=C(O)CCC(=O)O.O=C(OCCc1ccccc1Cl)N1CCOc2cc3c(cc21)CCNCC3 | 169 to 170 °C
77 | CCOC(=O)N1CCOc2c1cc1c(c2Cl)CCNCC1.O=C(O)CCC(=O)O | 145 to 147 °C
78 | CC(C)CN1CCOc2cc3c(c(C4CC4)c21)CCNCC3 [Example 262] | 160 to 162 °C
79 | CCNC(=O)N1CCCc2cc3c(c(C)c21)CCNCC3.O=C(O)C(=O)O | 170 to 171 °C
80 | CCCN1C(=O)CCc2cc3c(cc21)CCNCC3.Cl | 125 to 129 °C
81 | O=C(O)CCC(=O)O.O=C(OCCc1ccccc1Cl)N1CCCc2cc3c(cc21)CCNCC3 | 187 to 188 °C
82 | c1c2c(c(C3CC3)c3c1OCCN3C[C@H]1CCCO1)CCNCC2 [Example 227] | 156 to 158 °C
83 | Cc1c2c(cc3c1N(CCCF)CCO3)CCNCC2.O=C(O)/C=C/C(=O)O | 187 to 190 °C
84 | CCN1CCOc2cc3c(c(C4CC4)c21)CCNCC3.O=C(O)/C=C/C(=O)O | 174 to 177 °C
85 | Cl.FC(F)(F)CN1CCOc2cc3c(cc21)CCNCC3 | 221 to 222 °C
86 | CCOC(=O)N1CCCc2cc3c(c(Br)c21)CCNCC3.O=C(O)C(=O)O | 187 to 189 °C
